Test results reported in patent publication US10226460B2, “Pharmaceutically acceptable salts of pirlindole enantiomers for use in medicine” (TECNIMEDE SOCIEDADE TECNICO-MEDICINAL S.A., priority 2014, dated 2019).

Assay: Solubility test, classical saturation shake-flask method in 0.1N HCl
Format: physicochemical
Description: The Solubility test performed for showing the present invention's advantages is well known in the state of the art and is based on the “Classical saturation shake-flask method”, which comprises: Agitation at 37° C. during 15 h of supersaturated solution of the solid in HCl (aq) 0.1N, followed by filtration, dilution with water and quantification by UV measurement at 267 nm wavelength.

Compound: Cc1ccc2c(c1)c1c3n2CCNC3CCC1.Cl (racemic) [(rac)-pirlindole•HCl, 2,3,3a,4,5,6-hexahydro-1H-8-methyl-pyrazine [3,2,1-j,k]carbazole]
- Solubility category in 0.1 N HCl: slightly soluble
